Read-outs that look alike come from different tables or passages of the source.
Legend:
microsomal stability = conditions: for CLint scaled at 1 µM: rat, microsomes; for Rat Clint: microsomal intrinsic clearance in vitro
rat mGlu4 = rat mGlu4 (Rattus norvegicus, UniProt P31423); experiment: thallium flux in HEK cells expressing rat mGlu4 with GIRK channels; format: cell-based; conditions: maximal PAM response normalized to control PAM 1 (PHCCC); mean ± SEM
CYP1A2 = target: T1, CYP1A2 (Homo sapiens, UniProt P05177); experiment: CYP450 enzyme inhibition, CYP1A2
T1 sequence (P05177 1-516): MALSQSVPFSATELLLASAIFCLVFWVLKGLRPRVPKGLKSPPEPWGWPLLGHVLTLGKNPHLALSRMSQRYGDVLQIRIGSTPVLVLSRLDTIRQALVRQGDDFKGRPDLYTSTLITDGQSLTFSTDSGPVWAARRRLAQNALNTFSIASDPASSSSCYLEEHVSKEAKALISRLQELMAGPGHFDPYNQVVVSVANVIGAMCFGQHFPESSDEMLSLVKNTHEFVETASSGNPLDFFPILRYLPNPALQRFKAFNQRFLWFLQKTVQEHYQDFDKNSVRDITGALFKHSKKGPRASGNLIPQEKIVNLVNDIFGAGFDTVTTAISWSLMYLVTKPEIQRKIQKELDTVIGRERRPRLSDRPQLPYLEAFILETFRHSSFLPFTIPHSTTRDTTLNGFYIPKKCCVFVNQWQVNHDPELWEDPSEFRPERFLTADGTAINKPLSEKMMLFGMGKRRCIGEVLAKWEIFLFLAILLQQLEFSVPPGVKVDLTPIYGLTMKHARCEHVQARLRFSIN

CYP3A4 = CYP3A4 (Homo sapiens, UniProt P08684); experiment: CYP450 enzyme inhibition, CYP3A4
CYP2C9 = CYP2C9 (Homo sapiens, UniProt P11712); experiment: CYP450 enzyme inhibition, CYP2C9; conditions: P450 2C9, CYP2C9 inhibition
CYP2D6 = CYP2D6 (Homo sapiens, UniProt P10635); experiment: CYP450 enzyme inhibition, CYP2D6; conditions: P450 2D6, CYP2D6 inhibition
mGlu1 = conditions: cited from earlier work
[1] = test system: acute rodent models of Parkinson's disease; conditions: icv injection or systemically in a 50% DMSO vehicle; cited from earlier work
human mGlu4 = human mGlu4 (Homo sapiens, UniProt Q14833); experiment: cell-based
[2] = dosed systemically in a nontoxic vehicle; cited from earlier work

Sequence of CYP2D6 (P10635 whole entry): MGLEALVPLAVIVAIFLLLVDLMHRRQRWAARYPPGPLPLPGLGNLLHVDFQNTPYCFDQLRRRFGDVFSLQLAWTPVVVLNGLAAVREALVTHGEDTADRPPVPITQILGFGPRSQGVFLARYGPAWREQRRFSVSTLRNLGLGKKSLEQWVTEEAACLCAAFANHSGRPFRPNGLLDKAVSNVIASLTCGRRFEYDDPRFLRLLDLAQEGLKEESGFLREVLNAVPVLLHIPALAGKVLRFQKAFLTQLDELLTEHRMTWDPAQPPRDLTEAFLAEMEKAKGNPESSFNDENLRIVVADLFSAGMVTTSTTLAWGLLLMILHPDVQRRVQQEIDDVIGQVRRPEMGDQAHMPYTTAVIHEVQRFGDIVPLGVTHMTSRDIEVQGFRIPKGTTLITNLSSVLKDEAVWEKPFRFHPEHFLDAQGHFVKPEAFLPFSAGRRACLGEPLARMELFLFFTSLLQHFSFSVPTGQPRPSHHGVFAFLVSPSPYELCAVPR
Sequence of human mGlu4 (Q14833 33-912): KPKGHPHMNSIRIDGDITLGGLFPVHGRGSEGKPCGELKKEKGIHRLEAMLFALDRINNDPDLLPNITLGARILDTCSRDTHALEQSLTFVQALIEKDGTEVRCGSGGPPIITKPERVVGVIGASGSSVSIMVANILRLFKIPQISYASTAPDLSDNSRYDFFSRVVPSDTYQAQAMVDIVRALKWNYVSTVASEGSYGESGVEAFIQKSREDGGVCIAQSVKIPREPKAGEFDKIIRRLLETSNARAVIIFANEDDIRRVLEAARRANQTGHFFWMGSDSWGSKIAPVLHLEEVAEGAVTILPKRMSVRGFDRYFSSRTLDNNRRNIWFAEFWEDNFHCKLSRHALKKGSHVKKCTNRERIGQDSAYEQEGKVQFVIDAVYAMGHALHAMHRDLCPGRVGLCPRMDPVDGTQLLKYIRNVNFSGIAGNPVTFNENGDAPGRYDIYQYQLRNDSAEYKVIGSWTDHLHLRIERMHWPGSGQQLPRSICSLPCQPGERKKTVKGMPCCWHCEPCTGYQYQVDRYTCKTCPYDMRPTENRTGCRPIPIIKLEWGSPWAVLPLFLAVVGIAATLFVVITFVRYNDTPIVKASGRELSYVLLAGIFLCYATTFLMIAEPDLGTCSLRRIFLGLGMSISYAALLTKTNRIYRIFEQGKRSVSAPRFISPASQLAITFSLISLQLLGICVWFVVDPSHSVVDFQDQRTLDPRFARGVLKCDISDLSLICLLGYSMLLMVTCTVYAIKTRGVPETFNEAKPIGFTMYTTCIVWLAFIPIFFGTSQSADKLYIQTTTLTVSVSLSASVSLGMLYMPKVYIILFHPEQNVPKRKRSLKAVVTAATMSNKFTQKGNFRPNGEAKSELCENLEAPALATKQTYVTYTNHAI
Sequence of CYP3A4 (P08684 whole entry): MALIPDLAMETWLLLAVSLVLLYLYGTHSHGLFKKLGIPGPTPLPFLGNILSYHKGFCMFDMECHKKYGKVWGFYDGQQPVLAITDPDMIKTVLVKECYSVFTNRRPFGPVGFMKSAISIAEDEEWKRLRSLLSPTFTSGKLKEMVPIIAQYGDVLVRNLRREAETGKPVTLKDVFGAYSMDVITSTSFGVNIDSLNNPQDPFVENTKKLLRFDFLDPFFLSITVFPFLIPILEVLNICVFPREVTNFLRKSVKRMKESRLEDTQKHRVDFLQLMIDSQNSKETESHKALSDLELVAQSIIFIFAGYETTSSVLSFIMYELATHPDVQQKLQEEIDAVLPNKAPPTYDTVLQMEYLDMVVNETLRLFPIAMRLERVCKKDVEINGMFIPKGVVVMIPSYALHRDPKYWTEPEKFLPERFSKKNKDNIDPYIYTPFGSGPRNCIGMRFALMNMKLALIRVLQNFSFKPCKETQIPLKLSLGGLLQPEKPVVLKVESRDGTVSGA
Sequence of CYP2C9 (P11712 whole entry): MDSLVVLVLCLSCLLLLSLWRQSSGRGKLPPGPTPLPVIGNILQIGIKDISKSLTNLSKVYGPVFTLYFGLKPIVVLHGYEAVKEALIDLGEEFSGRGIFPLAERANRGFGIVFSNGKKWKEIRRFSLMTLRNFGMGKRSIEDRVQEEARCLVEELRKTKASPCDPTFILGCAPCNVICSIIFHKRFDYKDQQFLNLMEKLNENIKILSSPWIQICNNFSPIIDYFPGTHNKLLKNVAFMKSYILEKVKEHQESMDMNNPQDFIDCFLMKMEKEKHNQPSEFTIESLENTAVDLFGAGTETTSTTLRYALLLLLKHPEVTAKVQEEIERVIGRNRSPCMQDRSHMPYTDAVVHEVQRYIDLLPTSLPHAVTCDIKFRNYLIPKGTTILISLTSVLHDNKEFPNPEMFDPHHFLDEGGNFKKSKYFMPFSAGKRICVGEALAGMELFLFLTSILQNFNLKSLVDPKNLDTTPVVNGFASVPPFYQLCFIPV
Sequence of rat mGlu4 (P31423 33-912): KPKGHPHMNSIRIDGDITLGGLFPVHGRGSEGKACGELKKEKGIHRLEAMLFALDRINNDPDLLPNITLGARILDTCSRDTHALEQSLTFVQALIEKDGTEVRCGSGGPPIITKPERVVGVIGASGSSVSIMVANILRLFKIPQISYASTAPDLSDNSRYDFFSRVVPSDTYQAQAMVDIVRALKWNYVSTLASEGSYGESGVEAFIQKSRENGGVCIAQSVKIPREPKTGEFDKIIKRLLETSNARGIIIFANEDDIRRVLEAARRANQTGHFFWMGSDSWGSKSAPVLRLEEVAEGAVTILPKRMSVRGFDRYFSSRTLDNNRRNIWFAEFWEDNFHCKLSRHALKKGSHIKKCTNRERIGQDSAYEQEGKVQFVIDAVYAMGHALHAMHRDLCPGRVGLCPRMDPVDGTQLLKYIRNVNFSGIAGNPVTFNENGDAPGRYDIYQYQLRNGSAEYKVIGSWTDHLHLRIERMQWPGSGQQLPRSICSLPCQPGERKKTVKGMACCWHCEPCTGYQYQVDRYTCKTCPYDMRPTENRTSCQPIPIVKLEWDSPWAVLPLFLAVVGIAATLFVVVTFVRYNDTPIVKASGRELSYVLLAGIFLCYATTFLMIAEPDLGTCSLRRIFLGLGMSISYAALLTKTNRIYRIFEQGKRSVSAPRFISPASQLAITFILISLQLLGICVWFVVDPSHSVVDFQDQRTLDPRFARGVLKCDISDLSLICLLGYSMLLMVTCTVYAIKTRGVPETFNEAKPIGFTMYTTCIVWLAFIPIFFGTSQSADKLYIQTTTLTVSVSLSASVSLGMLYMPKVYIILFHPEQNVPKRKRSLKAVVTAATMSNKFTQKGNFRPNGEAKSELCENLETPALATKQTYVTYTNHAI

**Q.** For `O=C(Nc1ccc(NC(=O)c2ccccc2Cl)c(F)c1)c1ccccn1` [Compound 10d], which CLint scaled at 1 µM (microsomal stability) is on record?
**A.** The CLint scaled at 1 µM was 31.2 mL/min/kg.

**Q.** Which results are given for `COc1ccccc1C(=O)n1ccc2cc(NC(=O)c3ccccn3)ccc21` [Compound 15]?
**A.** Rat Clint (microsomal stability): poor metabolic stability; CLint scaled at 1 µM (microsomal stability): 605 mL/min/kg

**Q.** With `O=C(Nc1ccc(NC(=O)c2ccc(F)cc2Cl)c(Cl)c1)c1ccccn1` [Compound 12d] as the compound, how does the CLint scaled at 1 µM (microsomal stability) read?
**A.** The CLint scaled at 1 µM was 54 mL/min/kg.

**Q.** Which results are given for `COc1cc(NC(=O)c2nccs2)ccc1NC(=O)c1ccccc1Cl` [Compound 9e]?
**A.** Rat Clint (microsomal stability): poor metabolic stability; CLint scaled at 1 µM (microsomal stability): 185 mL/min/kg; GluMax (%Cmpd 1), rat mGlu4 (rat mGlu4): 133.9 %Cmpd 1

**Q.** With `Cc1ccccc1C(=O)Nc1ccc(NC(=O)c2ccccn2)cc1Cl` [Compound 12a, N-(3-chloro-4-(2-methylbenzamido)phenyl)picolinamide] as the compound, how does the “Rat Clint” value (microsomal stability) read?
**A.** The value was “acceptable”.

**Q.** What about the CLint scaled at 1 µM (microsomal stability) of the same compound?
**A.** The CLint scaled at 1 µM was 46.2 mL/min/kg.

**Q.** And the IC50 (CYP1A2)?
**A.** Its IC50 is over 30 µM.

**Q.** And the IC50 (CYP1A2; human)?
**A.** The IC50 was over 10 µM.

**Q.** What about the IC50 (CYP3A4) of the same compound?
**A.** The IC50 was over 30 µM.

**Q.** And the IC50 (CYP2C9)?
**A.** Its IC50 is 14.1 µM.

**Q.** What about the IC50 (CYP2D6) of the same compound?
**A.** The IC50 was 12 µM.

**Q.** Which results are given for `O=C(Nc1ccccc1)[C@]12C[C@H]1/C(=N\O)c1ccccc1O2` (stereo in doubt) [Compound 1, N-phenyl-7-(hydroxyimino)cyclopropa[b]chromen-1a-carboxamide]?
**A.** activity at mGlu1 (mGlu1): partial antagonist activity; activity in acute rodent models of Parkinson's disease [1]: active

**Q.** For `O=C(Nc1ccc(NC(=O)c2ccccc2Cl)cc1)c1ccccn1` [Compound 10c], which EC50 (human mGlu4) is on record?
**A.** The EC50 was 3.75 µM.

**Q.** For `COc1cc(NC(=O)c2cnccn2)ccc1NC(=O)c1ccccc1Cl` [Compound 9h], which EC50 (human mGlu4) is on record?
**A.** The EC50 was 0.0995 µM.

**Q.** With `COc1cc(NC(=O)c2ccccn2)ccc1NC(=O)c1ccccc1Cl` [Compound 9g, N-(4-(2-chlorobenzamido)-3-methoxyphenyl)picolinamide] as the compound, how does the CLint scaled at 1 µM (microsomal stability) read?
**A.** Its CLint scaled at 1 µM is 42.6 mL/min/kg.

**Q.** And the IC50 (CYP1A2)?
**A.** The IC50 was over 30 µM.

**Q.** What about the “GluMax (%Cmpd 1), rat mGlu4” value (rat mGlu4) of the same compound?
**A.** The value was 147.0 %Cmpd 1.

**Q.** And the IC50 (CYP3A4)?
**A.** Its IC50 is over 30 µM.

**Q.** And the IC50 (CYP2C9)?
**A.** The IC50 was 14.3 µM.

**Q.** What about the IC50 (CYP2D6) of the same compound?
**A.** The IC50 was 12.8 µM.

**Q.** Which EC50 (human mGlu4) does the source give for `O=C(Nc1ccc(NC(=O)c2ccccc2Cl)c(C(F)(F)F)c1)c1ccccn1` [Compound 10b] here?
**A.** Its EC50 is 0.556 µM.

**Q.** With `COc1cc(NC(=O)c2ccccn2)ccc1Cl` [Compound 3] as the compound, how does the CNS penetration [2] read?
**A.** The CNS penetration was “CNS penetrant”.

**Q.** Which results are given for `O=C(Nc1ccc(NC(=O)c2ccccc2Cl)c(Cl)c1)c1ccccn1` [Compound 10a, N-(3-chloro-4-(2-chlorobenzamido)phenyl)picolinamide]?
**A.** Rat Clint (microsomal stability): acceptable; CLint scaled at 1 µM (microsomal stability): 44.9 mL/min/kg; IC50 (CYP1A2): > 30 µM; IC50 (CYP3A4): > 30 µM; IC50 (CYP2C9): 11.8 µM; IC50 (CYP2D6): 13.1 µM

Reference: PMC3166797 (Journal of medicinal chemistry, 2011)
